# Results published in patent US11564913B2, “Compositions and methods for treating cancer” (Children's Hospital Medical Center, priority 2019, dated 2023).
# Assays:
# MDA-MB-231 cells = experiment: EGF-induced lamellipodia formation / F-actin staining; assay type: cell-based, human
# Experimental: FIG. 5: Cytoskeletal changes induced by IODVA1 treatment. IODVA1 inhibits lamellipodia and circular dorsal ruffle (CDR) formation in MDA-MB-231 cells and decreases Rac activation. (A) IODVA1 inhibits EGF-induced lamellipodia formation in MDA-MB-231 cells. MDA-MB-231 cells were plated on fibronectin-coated coverslips, serum starved for 4 h, […], fixed and stained with Phalloidin Alexa Fluor 594 (F-Actin, pseudocolored red) and DAPI (nuclei, pseudocolored blue). Representative images show lamellipodia formation and enrichment of actin staining at the leading edge (white closed arrowheads) at 0 and 0.3 μM concentrations and lack of lamellipodia with rounded cell morphology at 1 and 3 μM. Note equally distributed phalloidin staining with presence of stress fibers in the cell body of the 1 and 3 μM treated-cells (white open arrowheads) indicative of stationary cells. Scale bar=10 μm. […] The percentage of cells with CDRs was counted as the number of cells with CDRs normalized to the total number of cells in the field. Around 150 cells were counted per condition per experiment. Cells with multiple CDRs were counted only once. […] Levels of active Rac (RacGTP, % of control), active Cdc42 (Cdc42GTP, % of control) and active RhoA (RhoAGTP, % of control) were quantified using ImageJ and ImageLab and show combined data as mean±s.e.m. from at least 3 independent experiments. […]
# [1] = test system: phosphorylated Vav3 (pY173) in MDA-MB-231 cells; experiment: Immunoblot of phosphorylated Vav3 (pY173); assay type: cell-based, human; details: 3 μM, 15 min
# Experimental: FIG. 16: IODVA1 decreases levels of pVav3 in in vitro and in vivo models of triple negative breast cancer. (A) Immunoblot and quantification of Vav3 protein in lysates of MDA-MB-231 triple negative breast cancer cells stably expressing scrambled or Vav3-targeting shRNAs. Viability of the MDA-MB-231 cells stably expressing shVav3 in the presence of IODVA1 (0-1 μM). Cells were grown in the presence of IODVA1 and counted by trypan blue exclusion at the indicated time points. (B) MDA-MB-231 cells were incubated with IODVA1 (3 μM) for 15 min and the levels of phosphorylated Vav3 (pY173) were assessed by immunoblotting. (C) Immunohistochemical staining of phosphorylated Vav3 in tissue derived from MDA-MB-231 xenografts treated with vehicle control or IODVA1.
# Next, we tested if IODVA1 is effective in another model of Vav3-dependent cancer. We chose MDA-MB-231 triple negative breast cancer cells because these cells express high endogenous levels of Vav3 (Chen, 2015) and because Vav3 is an acknowledged target in breast cancer (Chen, 2015; Lee, 2008; Aguilar, 2014; Citterio, 2012; Lorenzo-Martin. 2019). […] Second, we incubated MDA-MB-231 cells with IODVA1 (3 μM) for 15 min and analyzed the levels of phosphorylated Vav3 (pY173) by immunoblotting. […]
smiles,measurement,setting,value
"OC1(c2ccccn2)N=C(Nc2nc3ccccc3[nH]2)N=C1c1ccccn1 (stereo not drawn) [IODVA1, (Z)-2-((1H-benzo[d]imidazol-2-yl)imino)-4,5-di(pyridin-2-yl)-2,5-dihydro-1H-imidazol-5-ol]",lamellipodia formation and enrichment of cortical filamentous actin,"MDA-MB-231 cells; 0-3 μM for 1 h, then EGF for 30 min",inhibited
same,overall filamentous actin staining,"MDA-MB-231 cells; EGF, wash out, then 3 μM within 30 min",qualitatively reduced
same,pY173 signal,[1],significant decrease
